pIC50: −log10 of the molar value.
molecular target: Induced myeloid leukemia cell differentiation protein Mcl-1 (Homo sapiens) (UniProt Q07820); assay: Mcl-1 Noxa peptide disruption concentration-response – biochemical, TR-FRET, dose response (AID 1417); conditions: Mcl-1/Noxa peptide interaction, cell-free TR-FRET (terbium/rhodamine), 2 h; measured here: absolute IC50
Sequence (Q07820 whole entry, looked up): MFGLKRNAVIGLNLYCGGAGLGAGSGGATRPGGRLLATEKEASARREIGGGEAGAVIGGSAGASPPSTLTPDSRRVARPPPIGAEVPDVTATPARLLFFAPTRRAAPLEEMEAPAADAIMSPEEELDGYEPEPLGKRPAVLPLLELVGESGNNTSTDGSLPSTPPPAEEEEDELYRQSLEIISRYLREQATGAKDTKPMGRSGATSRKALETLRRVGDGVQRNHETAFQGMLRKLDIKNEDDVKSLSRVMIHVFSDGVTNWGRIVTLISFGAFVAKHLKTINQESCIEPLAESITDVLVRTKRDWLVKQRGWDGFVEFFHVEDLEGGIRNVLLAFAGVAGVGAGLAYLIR

SMILES	pIC50
COc1ccccc1/C=C1/SC(=O)N(CCC(=O)Nc2ccc(S(=O)(=O)Nc3nccs3)cc2)C1=O	5.54
CC(/C=C1\SC(=S)N(CCCC(=O)Nc2ccc(C(=O)O)c(O)c2)C1=O)=C\c1ccccc1	> 6.40
O=C1NC(=S)NC(=O)C1=Cc1ccc2c(c1)CCN2CCCCl	> 6.40
O=[N+]([O-])c1cc(Cl)cc(/C=N/NC(=S)Nc2cc(S(=O)(=O)N3CCOCC3)ccc2Cl)c1O	> 6.40
CN(C)c1ccc(/C=C/c2ccc3c4ccccc4ccc3[n+]2-c2ccccc2)cc1	< 4.27
Cc1c(N=Nc2c(-c3ccc([N+](=O)[O-])cc3)[nH]n(C(N)=S)c2=O)cccc1[N+](=O)[O-]	> 6.40
O=C1C=CC(=O)C(C2=C3C(=O)N(CCc4ccccc4)CC(=O)N3CCC2)=C1	< 4.27
COc1ccc(C(=O)C[n+]2ccc(-c3nnc4n3CCCCC4)cc2)cc1	4.64
CCOc1cc(/C=C(\C#N)c2[nH]nc(N)c2C#N)ccc1O	5.34
O=c1ccc2[n+]([O-])c3ccc(O)cc3oc-2c1	< 4.27
CCN1C(=O)C(C)S/C1=N\S(=O)(=O)c1ccc(F)cc1 (stereo not given)	< 4.27
Cc1ccc(S(=O)(=O)/N=C2/C=C(Sc3ncn[nH]3)C(=O)c3ccccc32)cc1	> 6.40
CCN(c1ccc(NC(=O)COC(=O)c2ccc(C)c(S(=O)(=O)N3CCOCC3)c2)cc1)C(C)C	< 4.27
CCc1nn2c(=O)cc(COc3ccc(/C=C4\C(=N)N5N=C(C)SC5=NC4=O)cc3)nc2s1	5.42
O=C(CSc1ccsc1[N+](=O)[O-])N1CCN(c2ccc(Cl)cc2)CC1	5.28
CN(C)S(=O)(=O)c1cccc(-c2nn(-c3ccccc3)cc2/C=C2\SC(=S)NC2=O)c1	6.32
Clc1cccc(N/N=C/c2ccc(N3CCOCC3)s2)c1	> 6.40
c1ccc(-c2ccc(-c3n(-c4ccccn4)c4ccccc4[n+]3-c3ccccn3)cc2)cc1	4.46
O=C(Nc1cccc(Cl)c1)Nc1nnc(-c2ccncc2)s1	5.39
COc1cc(/C=C2/SC(=O)NC2=O)ccc1Oc1ccc([N+](=O)[O-])cc1[N+](=O)[O-]	5.38
COc1cc(OC)c2c(O)c3c(c(-c4c5c(c(O)c6c(OC)cc(OC)cc46)CO[C@@H](C)[C@H]5O)c2c1)[C@H](O)[C@H](C)OC3	< 4.27
Cc1ccc(N2NC(=O)/C(=C\c3cc4c(cc3[N+](=O)[O-])OCO4)C2=O)cc1C	5.31
Cc1ccc(N=C2NC(=O)S/C2=C\c2ccco2)cc1	5.07
CCOc1ccc(C(Nc2cccnc2)c2cc(Cl)c3cccnc3c2O)cc1 (stereo not given)	5.49
C=CCN=c1scc(-c2ccco2)n1/N=C/c1ccc(O)c(O)c1O	< 4.27

SMILES	pIC50
COc1ccc(N2CCC(CNC(=O)Nc3cccc(OC)c3)C2)cc1 (stereo not given)	< 4.27
O=C(O)c1ccccc1/C=N/NC(=O)c1cc(-c2ccco2)nc2ccccc12	> 6.40
COC(=O)c1ccc2nc(Nc3nc4ccc(F)cc4s3)sc2c1	5.76
COc1cc(C2Nc3cccc4cccc(c34)N2)cc(OC)c1OC(C)=O	5.61
COc1cccc(NS(=O)(=O)c2ccc3c(c2)C2C=CCC2C(c2ccc(C(=O)O)cc2)N3)c1 (stereo not given)	5.99
COc1ccc(-c2csc(NC(=S)NC(=O)c3cccs3)n2)cc1OC	5.48
CSc1nc(N(C)CCO)c2sc3nc(-c4ccco4)c4c(c3c2n1)CCC4	> 6.40
N#Cc1c(NC(=O)c2cccc(S(=O)(=O)Nc3ccc(C(=O)O)cc3)c2)sc2c1CCCC2	5.02
CN(C)c1ccc(Nc2c3c4c(cccc4n(C)c2=O)C(=O)c2ccccc2-3)cc1	> 6.40
Cc1cc(C(=O)N/N=C/c2ccc(O)c([N+](=O)[O-])c2)c(C)n1-c1ccc(F)cc1	5.63
O=C(O)CCCN1C(=O)/C(=C\c2ccc(-c3nc4ccccc4s3)o2)SC1=S	5.95
CCCOc1ccc(Cc2nn3c(=O)/c(=C/c4ccco4)sc3nc2=O)cc1	< 4.27
Cc1cc(/C=N/n2c(COc3ccccc3)nc3ccccc3c2=O)c(O)c([N+](=O)[O-])c1	5.81
CSc1nc(NCCOCCO)c2sc3nc(-c4ccco4)c4c(c3c2n1)CCC4	> 6.40
CC1CCCCC12NC(=O)N(CC(=O)Nc1sc3c(c1C(N)=O)CCC3)C2=O (stereo not given)	5.40
Cc1ccc2c(c1)NC(=O)c1cccnc1N2	< 4.27
CCN(CC)Cc1cc(O)c(CN(CC)CC)cc1O	> 6.40
CCN1C(=O)/C(=C\c2ccc(-c3ccc([N+](=O)[O-])cc3OC)o2)SC1=Nc1cccc(C(=O)O)c1	> 6.40
COc1cc2c(-c3ccc(O)cc3)nc3c(c(C)nn3-c3ccccc3)c2cc1OC	5.93
O=C(O)c1ccccc1N/N=C/c1c(Sc2nnnn2-c2ccccc2)nc2ccccn2c1=O	> 6.40
O=C(c1ccccc1)c1ccc2nc(-c3ccco3)c(-c3ccco3)nc2c1	5.36
Nc1ccc(O)c2c1C(=O)c1ccccc1C2=O	5.73
O=C1NN(c2ccc(Cl)cc2)C(=O)/C1=C\c1ccc(-c2cccc(C(=O)O)c2)o1	6.05
CNc1sc(C(=O)c2ccc(F)cc2)c(N)c1-c1nc2ccccc2s1	5.68
CC[C@H](C)NC(=O)c1ccc(Cn2c(=S)[nH]c3c([nH]c4ccc(OC)cc43)c2=O)cc1	5.21

SMILES	pIC50
C=C(C)C(=O)Nc1cccc(C2=NOC3(C2)C[C@H](C(N)=O)N(C(=O)/C=C/C)C3)c1 (stereo not given in full)	5.53
O=C1CC(=O)c2c1cccc2[N+](=O)[O-]	5.59
COc1ccccc1Nc1nc(-c2sc(NC(=O)c3ccc([N+](=O)[O-])cc3)nc2C)cs1	> 6.40
Oc1cc2c(cc1C(c1ccc(Cl)c(Cl)c1)N1CCCC1)OCO2 (stereo not given)	< 4.27
O=C(O)COc1ccccc1C(Nc1cccnc1)c1cc(Cl)c2cccnc2c1O (stereo not given)	> 6.40
O=C(CN1C(=O)/C(=C2\SC(=S)N(C3CCS(=O)(=O)C3)C2=O)c2ccccc21)Nc1ccc(F)cc1 (stereo not given)	5.68
Cn1c(N)c(C(=O)COC(=O)c2cc(-c3ccco3)nc3ccccc23)c(=O)n(Cc2ccccc2)c1=O	> 6.40
O=C(Nc1nc2ccccc2[nH]1)c1ccc(Cl)c([N+](=O)[O-])c1	5.06
COc1ccc(NC(=O)CN2C(=O)/C(=C3\SC(=S)N(C4CCS(=O)(=O)C4)C3=O)c3ccccc32)cc1 (stereo not given)	5.59
Cc1cc(C)c(S(=O)(=O)Nc2cc(SCC(=O)O)c(O)c3ccccc23)cc1C	> 6.40
COc1ccc(C(=O)Nc2cccc(/C=C(\CCC(=O)O)c3nc4ccccc4s3)c2)cc1	5.40
COc1cc(/C=C(/NC(C)=O)C(=O)O)cc(Cl)c1OCc1ccc(Br)cc1	< 4.27
Cc1[nH]c2ccccc2c1/C=N/Nc1ccc([N+](=O)[O-])cc1	6.12
CCn1nc(C)c(/C=N/NC(=O)Cc2ccc(Cl)cc2)c1C	< 4.27
O=C(CSc1ccsc1[N+](=O)[O-])Nc1cc(F)ccc1F	< 4.27
COc1ccc(CN2C(=O)NC(=O)/C(=C/c3ccc([N+](=O)[O-])o3)C2=O)cc1	5.55
O=C(O)c1cccc(Cn2c(Cl)c(/C=N/NC(=O)c3cc4ccccc4cc3O)sc2=O)c1	5.47
CCc1nc(Nc2ccc(N3CCN(C(C)=O)CC3)cc2)c2oc3ccccc3c2n1	< 4.27
CCCCN1C(=O)/C(=C/C=C/c2ccco2)C(=O)NC1=S	6.26
O=C(O)CCC(=O)NCCC1=c2ccccc2=N/C1=C\c1c(O)n(Cc2ccc(F)cc2)c(=S)[nH]c1=O	> 6.40
Cc1ccc(-c2cc(C(=O)NCCCn3ccnc3)c3cc(Br)ccc3n2)o1	< 4.27
COc1ccc(/C=C2/SC(=O)N(CCC(=O)Nc3ccc(S(=O)(=O)Nc4nccs4)cc3)C2=O)cc1	5.42
COc1cnn(-c2ccc(Br)cc2)c(=O)c1SCc1ccccc1	< 4.27
CN(C)c1ccc(Sc2nnc(NC(=O)Nc3ccc(Cl)cc3Cl)s2)cc1	5.46
C=CCOC(=O)/C(=C\c1ccccc1)NC(=O)c1ccc(C)cc1	< 4.27

SMILES	pIC50
O=C1N=c2ccccc2=C1c1sc(Nc2ccc(O)cc2)nc1O	5.92
CN(C)c1ccc(NC(=O)Nc2ccc3snnc3c2)cc1	> 6.40
COC(=O)c1ccc(=O)c2nc3/c(=C/O)c(O)cc(=O)c3[nH]c12	> 6.40
C/C(=C\c1ccco1)C1Nc2cccc3cccc(c23)N1	5.43
CN1CCN(S(=O)(=O)c2ccc(NC(=S)NC(=O)c3ccc(Cl)cc3)cc2)CC1	5.44
CCc1ccc(S(=O)(=O)/N=C2/C=C(Sc3ncn[nH]3)C(=O)c3ccccc32)cc1	> 6.40
O=C(Nc1ccccc1Cl)c1cnccn1	< 4.27
COc1ccc(NC(=O)c2ccccc2N(Cc2ccccc2)S(C)(=O)=O)cc1	< 4.27
Cc1cc(C)c2nc(-c3ccccn3)cc(C(=O)Nc3ccc(S(=O)(=O)Nc4onc(C)c4C)cc3)c2c1	5.55
O=C(CSc1ccsc1[N+](=O)[O-])Nc1cccc(F)c1	5.58
Cc1ccc(NC(=O)CN2C(=O)/C(=C3\SC(=S)N(C4CCS(=O)(=O)C4)C3=O)c3ccccc32)cc1 (stereo not given)	> 6.40
CCOc1ccc(C2C3=C(Nc4nc(N)[nH]c(=O)c42)c2ccccc2C3=O)cc1 (stereo not given)	4.63
O=C(O)C[C@@H]1C(=O)O[C@@H]2C(COC(=O)c3cc(O)c(O)c(O)c3)O[C@@H](OC(=O)c3cc(O)c(O)c(O)c3)[C@@H](OC(=O)c3cc(O)c(O)c4c3[C@H]1[C@H](O)C(=O)O4)[C@H]2OC(=O)c1cc(O)c(O)c(O)c1 (stereo not given in full)	> 6.40
Cc1ccc(/C=C/C(=O)Nc2ccc(N(C)C)cc2)o1	> 6.40
COc1cccc2c(C)c(C(=O)O)[nH]c12	5.70
CCOc1ccc(/C=C/[N+](=O)[O-])c2ccccc12	5.77
CNc1ccc(Br)cc(C(=O)/C=C/c2ccc(OC)cc2OC)c1=O	5.45
CN(C)c1ccc(N=c2sc3ccccc3n2C)cc1	> 6.40
O=C(Cn1c(=O)n(-c2ccccc2)c(=O)c2sccc21)N1CCCC1	< 4.27
Cc1c(C(=O)N/N=C/c2ccc(-c3ccccc3[N+](=O)[O-])o2)sc(N)c1C#N	5.77
CCCSC1=N/C(=C\c2ccc([N+](=O)[O-])o2)C(=O)S1	5.52
CCOC(=O)c1c(NC(=O)c2cc(-c3ccc(O)cc3)on2)sc(C(C)=O)c1C	4.96
CCN(c1ccc(NC(=O)c2ccc(Cl)nc2)cc1)C(C)C	< 4.27
NC(=O)c1ccsc1NC(=O)COC(=O)/C=C/c1ccc([N+](=O)[O-])cc1	5.54
Cc1ccc(NC(=S)NNc2ccc([N+](=O)[O-])cc2S(=O)(=O)Nc2ccccc2C(=O)O)cc1C	5.90

From PubChem BioAssay AID1417 (Emory University Molecular Libraries Screening Center, 2008)
